Test results from ChEMBL document CHEMBL3784920, “Synthesis and Pharmacological Evaluation of Novel Adenine-Hydrogen Sulfide Slow Release Hybrids Designed as Multitarget Cardioprotective Agents” (J Med Chem, 2016).
The source made the active and inactive calls. No cut-off for these calls is given here.

Columns and labels:
[1] = Induction of H2S release in potassium phosphate buffer at pH 7.4 after 15 mins by methylene-blue assay; assay type: physicochemical; conditions: pH 7.4, 0.25 h
Oryctolagus cuniculus [2] = test: Toxicity in New Zealand white rabbit assessed as baseline heart rate at 3.58 umol/kg, administered as single bolus dose (reference value: 269 +/- 10 bpm); assay type: organism-based; conditions: in vivo
Oryctolagus cuniculus [3] = test: Toxicity in New Zealand white rabbit myocardial ischemia/reperfusion injury model assessed as mean blood pressure at 3.58 umol/kg, administered as single bolus dose at 20 mins of sustained ischemia (reference value: 64 +/- 5 mmHg); assay type: organism-based; conditions: in vivo
RLF-6 = test: Induction of H2S release in RLF-6 cells assessed as cGMP accumulation at 250 uM after 5 mins by enzyme immuno assay; assay type: functional, cell-based; conditions: Rattus norvegicus
Oryctolagus cuniculus [4] = test: Toxicity in New Zealand white rabbit myocardial ischemia/reperfusion injury model assessed as heart rate at 3.58 umol/kg, administered as single bolus dose at 20 mins of sustained ischemia (reference value: 276 +/- 9 bpm); assay type: organism-based; conditions: in vivo
Oryctolagus cuniculus [5] = test: Toxicity in New Zealand white rabbit assessed as baseline heart rate at 1.79 umol/kg, administered as single bolus dose in presence of non selective adenosine receptor inhibitor SPT (reference value: 269 +/- 10 bpm); assay type: organism-based; conditions: in vivo
Oryctolagus cuniculus [6] = test: Toxicity in New Zealand white rabbit myocardial ischemia/reperfusion injury model assessed as heart rate at 1.79 umol/kg, administered as single bolus dose at 20 mins of sustained ischemia (reference value: 276 +/- 9 bpm); assay type: organism-based; conditions: in vivo
Oryctolagus cuniculus [7] = test: Toxicity in New Zealand white rabbit myocardial ischemia/reperfusion injury model assessed as mean blood pressure at 1.79 umol/kg, administered as single bolus dose at 180 mins of reperfusion in presence of SPT (reference value: 60 +/- 4 mmHg); assay type: organism-based; conditions: in vivo, 3 h
Oryctolagus cuniculus [8] = test: (§1) Cardioprotective activity in New Zealand white rabbit myocardial ischemia/reperfusion injury model assessed as reduction in infarct size at 1.79 umol/kg, administered as single bolus dose at 20th min of sustained ischemia by TTC staining (reference value: 47.9 +/- 0.7 %); assay type: functional, Myocardium; parameters: scale not given: the % may be the effect or the level left
Oryctolagus cuniculus [9] = test: Toxicity in New Zealand white rabbit assessed as baseline heart rate at 1.79 umol/kg, administered as single bolus dose (reference value: 269 +/- 10 bpm); assay type: organism-based; conditions: in vivo
Oryctolagus cuniculus [10] = test: Cardioprotective activity in New Zealand white rabbit myocardial ischemia/reperfusion injury model assessed as reduction in infarct size at 3.58 umol/kg, administered as single bolus dose at 20th min of sustained ischemia by TTC staining (reference value: 47.9 +/- 0.7 %); assay type: functional, Myocardium; parameters: scale not given: the % may be the effect or the level left
Oryctolagus cuniculus [11] = test: Toxicity in New Zealand white rabbit myocardial ischemia/reperfusion injury model assessed as heart rate at 1.79 umol/kg, administered as single bolus dose at 20 mins of sustained ischemia in presence of non selective adenosine receptor inhibitor SPT (reference value: 276 +/- 9 bpm); assay type: organism-based; conditions: in vivo
Oryctolagus cuniculus [12] = test: Toxicity in New Zealand white rabbit myocardial ischemia/reperfusion injury model assessed as heart rate at 1.79 umol/kg, administered as single bolus dose at 180 mins of reperfusion (reference value: 254 +/- 11 bpm); assay type: organism-based; conditions: in vivo, 3 h
Oryctolagus cuniculus [13] = test: Toxicity in New Zealand white rabbit assessed as heart weight at 1.79 umol/kg, administered as single bolus dose in presence of non selective adenosine receptor inhibitor SPT (reference value: 7.2 +/- 0.3 g); assay type: organism-based; conditions: in vivo
Oryctolagus cuniculus [14] = test: Toxicity in New Zealand white rabbit assessed as heart weight at 1.79 umol/kg, administered as single bolus dose (reference value: 7.2 +/- 0.3 g); assay type: organism-based; conditions: in vivo
Oryctolagus cuniculus [15] = test: Toxicity in New Zealand white rabbit assessed as baseline mean blood pressure at 1.79 umol/kg, administered as single bolus dose (reference value: 74 +/- 5 mmHg); assay type: organism-based; conditions: in vivo
Oryctolagus cuniculus [16] = test: Toxicity in New Zealand white rabbit assessed as baseline mean blood pressure at 3.58 umol/kg, administered as single bolus dose (reference value: 74 +/- 5 mmHg); assay type: organism-based; conditions: in vivo
Oryctolagus cuniculus [17] = test: Toxicity in New Zealand white rabbit assessed as heart weight at 3.58 umol/kg, administered as single bolus dose (reference value: 7.2 +/- 0.3 g); assay type: organism-based; conditions: in vivo
Oryctolagus cuniculus [18] = test: Increase in VASP phosphorylation at Ser239 in tissue from ischemic area of myocardium in New Zealand white rabbit myocardial ischemia/reperfusion injury model at 1.79 umol/kg administered as single bolus dose at 10th min of reperfusion by Western blot analysis; assay type: functional, organism-based
Oryctolagus cuniculus [19] = test: Toxicity in New Zealand white rabbit myocardial ischemia/reperfusion injury model assessed as mean blood pressure at 1.79 umol/kg, administered as single bolus dose at 180 mins of reperfusion (reference value: 60 +/- 4 mmHg); assay type: organism-based; conditions: in vivo, iv, 3 h
Oryctolagus cuniculus [20] = test: Increase in PLN phosphorylation at Ser16/Thr17 in tissue from ischemic area of myocardium in New Zealand white rabbit myocardial ischemia/reperfusion injury model at 1.79 umol/kg administered as single bolus dose at 10th min of reperfusion by Western blot analysis relative to control; assay type: functional, organism-based
Oryctolagus cuniculus [21] = test: Toxicity in New Zealand white rabbit myocardial ischemia/reperfusion injury model assessed as heart rate at 1.79 umol/kg, administered as single bolus dose at 180 mins of reperfusion in presence of non selective adenosine receptor inhibitor SPT (reference value: 254 +/- 11 bpm); assay type: organism-based; conditions: in vivo, 3 h
Oryctolagus cuniculus [22] = test: Toxicity in New Zealand white rabbit myocardial ischemia/reperfusion injury model assessed as mean blood pressure at 3.58 umol/kg, administered as single bolus dose at 180 mins of reperfusion (reference value: 60 +/- 4 mmHg); assay type: organism-based; conditions: in vivo, 3 h
Oryctolagus cuniculus [23] = test: as §1, with “20 mins before” for “20th min of”, “staining in presence of non selective adenosine receptor inhibitor SPT” for “staining”; assay type: functional, Myocardium; parameters: scale not given: the % may be the effect or the level left
Oryctolagus cuniculus [24] = test: Toxicity in New Zealand white rabbit myocardial ischemia/reperfusion injury model assessed as heart rate at 3.58 umol/kg, administered as single bolus dose at 180 mins of reperfusion (reference value: 254 +/- 11 bpm); assay type: organism-based; conditions: in vivo, 3 h
Oryctolagus cuniculus [25] = test: Toxicity in New Zealand white rabbit myocardial ischemia/reperfusion injury model assessed as mean blood pressure at 1.79 umol/kg, administered as single bolus dose at 20 mins of sustained ischemia in presence of non selective adenosine receptor inhibitor SPT (reference value: 64 +/- 5 mmHg); assay type: organism-based; conditions: in vivo, iv
Oryctolagus cuniculus [26] = test: Toxicity in New Zealand white rabbit myocardial ischemia/reperfusion injury model assessed as mean blood pressure at 1.79 umol/kg, administered as single bolus dose at 20 mins of sustained ischemia (reference value: 64 +/- 5 mmHg); assay type: organism-based; conditions: in vivo
Oryctolagus cuniculus [27] = test: Toxicity in New Zealand white rabbit assessed as baseline mean blood pressure at 1.79 umol/kg, administered as single bolus dose in presence of SPT (reference value: 74 +/- 5 mmHg); assay type: organism-based; conditions: in vivo
Oryctolagus cuniculus [28] = test: Toxicity in New Zealand white rabbit myocardial ischemia/reperfusion injury model assessed as mean blood pressure at 1.79 umol/kg, administered as single bolus dose at 20 mins of sustained ischemia in presence of NaHS (reference value: 64 +/- 5 mmHg); assay type: organism-based; conditions: in vivo, iv
Oryctolagus cuniculus [29] = test: Toxicity in New Zealand white rabbit assessed as baseline heart rate at 1.79 umol/kg, administered as single bolus dose in presence of NaHS (reference value: 269 +/- 10 bpm); assay type: organism-based; conditions: in vivo
Oryctolagus cuniculus [30] = test: Toxicity in New Zealand white rabbit myocardial ischemia/reperfusion injury model assessed as heart rate at 1.79 umol/kg, administered as single bolus dose at 180 mins of reperfusion in presence of NaHS (reference value: 254 +/- 11 bpm); assay type: organism-based; conditions: in vivo, iv, 3 h
[31] = Induction of H2S release in potassium phosphate buffer at 100 uM at pH 7.4 by Amperometric method; assay type: physicochemical; conditions: pH 7.4, 100 µM
Oryctolagus cuniculus [32] = test: Toxicity in New Zealand white rabbit myocardial ischemia/reperfusion injury model assessed as heart rate at 1.79 umol/kg, administered as single bolus dose at 20 mins of sustained ischemia in presence of NaHS (reference value: 276 +/- 9 bpm); assay type: organism-based; conditions: in vivo
Oryctolagus cuniculus [33] = test: Cardioprotective activity in New Zealand white rabbit myocardial ischemia/reperfusion injury model assessed as reduction in infarct size at 1.79 umol/kg, administered as single bolus dose at 20th min of sustained ischemia by TTC staining in presence of NAHS (reference value: 47.9 +/- 0.7 %); assay type: functional, Myocardium; parameters: scale not given: the % may be the effect or the level left
Oryctolagus cuniculus [34] = test: Toxicity in New Zealand white rabbit assessed as heart weight at 1.79 umol/kg, administered as single bolus dose in presence of NaHS (reference value: 7.2 +/- 0.3 g); assay type: organism-based; conditions: in vivo
Oryctolagus cuniculus [35] = test: Toxicity in New Zealand white rabbit assessed as baseline mean blood pressure at 1.79 umol/kg, administered as single bolus dose in presence of NaHS (reference value: 74 +/- 5 mmHg); assay type: organism-based; conditions: in vivo
Oryctolagus cuniculus [36] = test: Toxicity in New Zealand white rabbit myocardial ischemia/reperfusion injury model assessed as mean blood pressure at 1.79 umol/kg, administered as single bolus dose at 180 mins of reperfusion in presence of NaHS (reference value: 60 +/- 4 mmHg); assay type: organism-based; conditions: in vivo, iv, 3 h
[37] = Induction of H2S release in ammonium carbonate buffer at 100 uM at pH 7.4 by mass spectrometry; assay type: physicochemical; conditions: pH 7.4, 100 µM
[38] = Induction of H2S release in potassium phosphate buffer at 100 uM at pH 7.4 by Amperometric method in presence of glutathione; assay type: physicochemical; conditions: pH 7.4, 100 µM
[39] = Induction of H2S release in potassium phosphate buffer at 20 uM at pH 7.4 by Amperometric method; assay type: physicochemical; conditions: pH 7.4, 20 µM
[40] = Induction of H2S release in ammonium carbonate buffer at 100 uM at pH 7.4 by mass spectrometry in presence of glutathione; assay type: physicochemical; conditions: pH 7.4, 100 µM

SMILES	Activity [1]	Activity (RLF-6)	Activity (Oryctolagus cuniculus [5]) [bpm]	Activity (Oryctolagus cuniculus [6]) [bpm]	Activity (Oryctolagus cuniculus [7]) [mmHg]	Activity (Oryctolagus cuniculus [8]) [%]	Activity (Oryctolagus cuniculus [9]) [bpm]	Activity (Oryctolagus cuniculus [11]) [bpm]	Activity (Oryctolagus cuniculus [12]) [bpm]	Activity (Oryctolagus cuniculus [13]) [g]	Activity (Oryctolagus cuniculus [14]) [g]	Activity (Oryctolagus cuniculus [15]) [mmHg]	Activity (Oryctolagus cuniculus [18])	Activity (Oryctolagus cuniculus [19]) [mmHg]	Activity (Oryctolagus cuniculus [20])	Activity (Oryctolagus cuniculus [21]) [bpm]	Activity (Oryctolagus cuniculus [23]) [%]	Activity (Oryctolagus cuniculus [25]) [mmHg]	Activity (Oryctolagus cuniculus [26]) [mmHg]	Activity (Oryctolagus cuniculus [27]) [mmHg]	other results
NC(=S)c1ccc(OCCCCn2cnc3c(N)ncnc32)cc1	Dose-dependent effect	Active	278	276	76	16.6	266	270	255	7.5	7.2	90	Active	80	Active	276	16.9	76	82	81	Activity (Oryctolagus cuniculus [2]): 285 bpm; Activity (Oryctolagus cuniculus [3]): 40 mmHg; Activity (Oryctolagus cuniculus [4]): 242 bpm; Activity (Oryctolagus cuniculus [10]): 26.7%; Activity (Oryctolagus cuniculus [16]): 78 mmHg; Activity (Oryctolagus cuniculus [17]): 7.4 g; Activity (Oryctolagus cuniculus [22]): 52 mmHg; Activity (Oryctolagus cuniculus [24]): 258 bpm
NC(=O)c1ccc(OCCCCn2cnc3c(N)ncnc32)cc1			278	258	72	26.6	260	259	262	7.1	7.3	77		71		268	41.8	76	75	82	Activity (Oryctolagus cuniculus [28]): 65 mmHg; Activity (Oryctolagus cuniculus [29]): 268 bpm; Activity (Oryctolagus cuniculus [30]): 252 bpm; Activity [31]: Not Active; Activity (Oryctolagus cuniculus [32]): 272 bpm; Activity (Oryctolagus cuniculus [33]): 22.3%; Activity (Oryctolagus cuniculus [34]): 7.4 g; Activity (Oryctolagus cuniculus [35]): 79 mmHg; Activity (Oryctolagus cuniculus [36]): 67 mmHg
CC1(C)O[C@@H]2[C@H](O1)[C@@H](COc1ccc(C(N)=S)cc1)O[C@H]2n1cnc2c(N)ncnc21	Dose-dependent effect	Active																			
NC(=S)c1ccc(OC[C@H]2O[C@@H](n3cnc4c(N)ncnc43)[C@H](O)[C@@H]2O)cc1	Dose-dependent effect	Active	262	256	77	20.1	258	260	256	7.2	7.6	82	Active	76	Active	260	18.3	71	83	86	Activity [31]: Active; Activity [37]: 0.8 µM/min; Activity [38]: Not Active; Activity [39]: Not Active; Activity [40]: Not Active
Nc1ncnc2c1ncn2CCCCOc1ccc(-c2cc(=S)ss2)cc1	Dose-dependent effect																				
[Na+].[SH-] [SODIUM HYDROSULFIDE]				268			273		262		7.1	81		68					76		
